Assay results as given in PMC4054929 (Bioorganic & medicinal chemistry, 2014).
Several values for one entry are separate records, joined by “and”; a condition that tells them apart may be missing. Identical values can stand only once.

Experiments:
PDE10A [1] = conditions: NHP brain
PDE10A [2] = molecular target: PDE10A (Rattus norvegicus, UniProt Q9QYJ6)
[3] = In vivo biodistribution and regional brain uptake in rats; conditions: male SD rats, i.v.
[4] = rats pretreated with MP-10 2.0 mg/kg 5 min prior to tracer, 30 min p.i.

Sequence of PDE10A (Rattus norvegicus, UniProt Q9QYJ6) (Q9QYJ6 whole entry): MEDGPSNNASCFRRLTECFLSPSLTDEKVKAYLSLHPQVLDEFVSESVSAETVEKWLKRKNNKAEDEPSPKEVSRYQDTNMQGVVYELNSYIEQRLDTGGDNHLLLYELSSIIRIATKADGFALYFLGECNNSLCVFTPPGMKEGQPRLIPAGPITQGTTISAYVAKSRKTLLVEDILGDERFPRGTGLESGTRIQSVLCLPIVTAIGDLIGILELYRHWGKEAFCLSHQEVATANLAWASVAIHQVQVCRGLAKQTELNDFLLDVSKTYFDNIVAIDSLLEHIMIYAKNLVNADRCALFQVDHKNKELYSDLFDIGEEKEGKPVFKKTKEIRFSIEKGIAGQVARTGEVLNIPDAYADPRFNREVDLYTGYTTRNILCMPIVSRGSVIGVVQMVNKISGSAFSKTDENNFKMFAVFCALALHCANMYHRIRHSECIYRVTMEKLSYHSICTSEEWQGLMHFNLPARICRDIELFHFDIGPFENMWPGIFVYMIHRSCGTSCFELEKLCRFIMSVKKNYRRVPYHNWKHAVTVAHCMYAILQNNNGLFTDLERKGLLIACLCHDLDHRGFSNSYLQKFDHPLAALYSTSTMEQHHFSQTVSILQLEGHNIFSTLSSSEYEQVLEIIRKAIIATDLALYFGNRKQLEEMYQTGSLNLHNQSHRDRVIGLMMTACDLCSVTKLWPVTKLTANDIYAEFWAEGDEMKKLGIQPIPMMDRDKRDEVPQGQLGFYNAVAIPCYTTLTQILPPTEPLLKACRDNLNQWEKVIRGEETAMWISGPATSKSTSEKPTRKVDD

Cn1cc(-c2ccncc2)c(-c2ccc(OCc3nc4ccccc4cc3O[11CH3])cc2)n1 [[^11C]1, 3-(methoxy-^11C)-2-((4-(1-methyl-4-(pyridin-4-yl)-1H-pyrazol-3-yl)phenoxy)methyl)quinoline]
blood–brain-barrier penetration (PDE10A [1]): readily penetrate the blood–brain-barrier
Distribution, blood, MP-10 block (PDE10A [2]; [4]): 0.407 ± 0.026 %ID/gram
Distribution, cerebellum, MP-10 block (PDE10A [2]; [4]): 0.119 ± 0.006 %ID/gram
Distribution, fat, MP-10 block (PDE10A [2]; [4]): 1.353 ± 0.202 %ID/gram
Distribution, heart, MP-10 block (PDE10A [2]; [4]): 0.340 ± 0.036 %ID/gram
Distribution, kidney, MP-10 block (PDE10A [2]; [4]): 1.523 ± 0.162 %ID/gram
Distribution, liver, MP-10 block (PDE10A [2]; [4]): 5.781 ± 0.696 %ID/gram
Distribution, lung, MP-10 block (PDE10A [2]; [4]): 0.404 ± 0.024 %ID/gram
Distribution, muscle, MP-10 block (PDE10A [2]; [4]): 0.257 ± 0.026 %ID/gram
Distribution, striatum, MP-10 block (PDE10A [2]; [4]): 0.294 ± 0.013 %ID/gram
Distribution, total brain, MP-10 block (PDE10A [2]; [4]): 0.128 ± 0.003 %ID/gram
decrease of striatum: cerebellum ratio by MP-10 pretreatment (PDE10A [2]; rats, MP-10 2 mg/kg 5 min prior to tracer, 30 min p.i.): 50%
striatal binding after blocking dose of MP-10 (PDE10A [2]; rats, MP-10 2 mg/kg i.v. 5 min prior to tracer, p < 0.05): significant reduction
Biodistribution, blood ([3]; 5 min p.i.): 0.679 ± 0.116 %ID/gram
Biodistribution, cerebellum ([3]; 5 min p.i.): 0.229 ± 0.039 %ID/gram
Biodistribution, fat ([3]; 5 min p.i.): 0.935 ± 0.462 %ID/gram
Biodistribution, heart ([3]; 5 min p.i.): 0.733 ± 0.039 %ID/gram
Biodistribution, kidney ([3]; 5 min p.i.): 4.354 ± 0.473 %ID/gram
Biodistribution, liver ([3]; 5 min p.i.): 11.005 ± 0.758 %ID/gram
Biodistribution, lung ([3]; 5 min p.i.): 1.602 ± 0.509 %ID/gram
Biodistribution, muscle ([3]; 5 min p.i.): 0.412 ± 0.064 %ID/gram
Biodistribution, striatum ([3]; 5 min p.i.): 0.488 ± 0.101 ^a %ID/gram
Biodistribution, total brain ([3]; 5 min p.i.): 0.231 ± 0.038 %ID/gram
Biodistribution, blood ([3]; 30 min p.i. (control)): 0.321 ± 0.021 %ID/gram
Biodistribution, cerebellum ([3]; 30 min p.i. (control)): 0.097 ± 0.016 %ID/gram
Biodistribution, fat ([3]; 30 min p.i. (control)): 0.851 ± 0.314 %ID/gram
Biodistribution, heart ([3]; 30 min p.i. (control)): 0.296 ± 0.038 %ID/gram
Biodistribution, kidney ([3]; 30 min p.i. (control)): 1.647 ± 0.459 %ID/gram
Biodistribution, liver ([3]; 30 min p.i. (control)): 7.345 ± 1.472 %ID/gram
Biodistribution, lung ([3]; 30 min p.i. (control)): 0.408 ± 0.083 %ID/gram
Biodistribution, muscle ([3]; 30 min p.i. (control)): 0.244 ± 0.073 %ID/gram
Biodistribution, striatum ([3]; 30 min p.i. (control)): 0.452 ± 0.086 ^a %ID/gram and 0.452 ± 0.086 %ID/gram
Biodistribution, total brain ([3]; 30 min p.i. (control)): 0.133 ± 0.024 %ID/gram
Biodistribution, blood ([3]; 60 min p.i.): 0.275 ± 0.028 %ID/gram
Biodistribution, cerebellum ([3]; 60 min p.i.): 0.064 ± 0.006 %ID/gram
Biodistribution, fat ([3]; 60 min p.i.): 0.500 ± 0.087 %ID/gram
Biodistribution, heart ([3]; 60 min p.i.): 0.199 ± 0.013 %ID/gram
Biodistribution, kidney ([3]; 60 min p.i.): 1.275 ± 0.141 %ID/gram
Biodistribution, liver ([3]; 60 min p.i.): 6.398 ± 0.945 %ID/gram
Biodistribution, lung ([3]; 60 min p.i.): 0.299 ± 0.042 %ID/gram
Biodistribution, muscle ([3]; 60 min p.i.): 0.142 ± 0.014 %ID/gram
Biodistribution, striatum ([3]; 60 min p.i.): 0.380 ± 0.048 ^a %ID/gram
Biodistribution, total brain ([3]; 60 min p.i.): 0.095 ± 0.008 %ID/gram
